We go through twelve molecules from patent US9381186B2, “Substituted chroman derivatives, medicaments and use in therapy” (MEI Pharma, Inc., priority 2004, dated 2016).

Molecules are shown by their SMILES. Where two headings read alike, the source gives them in different places.

In data set [1] the test system is NFF (neonatal foreskin fibroblasts). The experiment in a line: Cytotoxicity (MTT proliferation assay) against neonatal foreskin fibroblasts. In kind it is cell-based, Human. How it is done:
(§1) The normal cell line NFF (neonatal foreskin fibroblasts) was a gift from Dr. Peter Parsons (Queensland Institute of Medical Research). RK (rabbit kidney) cells were obtained from Miller Whalley (Macquarie University). Both cell lines were cultured in RPMI supplemented with 10% FCS (CSL, Australia), penicillin (100 U/ml), streptomycin ([…]), L-glutamine (2 mM) and sodium bicarbonate (1.2 g/L), and cultured at 37° C. in a humidified atmosphere of 5% CO2
(§2) IC50 values were determined for each cell line. Cells were seeded in 96-well plates at an appropriate cell density as determined from growth kinetics analysis and cultured for 5 days in the absence and presence of the test compounds. Cell proliferation was assessed after the addition of 20 μl of 3-4,5 dimethylthiazol-2,5-diphenyl tetrazolium bromide (MTT, 2.5 mg/ml in PBS, Sigma) for 3-4 hrs at 37° C. according to manufacturer's instructions. IC50 values were calculated from semi-log plots of % of control proliferation on the y-axis against log dose on the x-axis.

The subject of data set [2] is CP70. Description: MTT proliferation assay, ovarian CP70. In kind it is cell-based. Background: Tetrazolium dyes change colour on reduction, which living cells bring about.
The subject of data set [3] is murine macrophages (RAW 264.7) stimulated with LPS. Description: Eicosanoid synthesis in LPS-stimulated RAW 264.7 macrophages. In kind it is cell-based, mouse. The conditions noted are these: test compound 10 μM, LPS 50 ng/ml, 16 hrs; negative = inhibition. How it is done:
The mouse macrophage cell line RAW 264.7 was cultured in DMEM supplemented with foetal calf serum (FCS), 2 mM glutamine and 50 U/ml penicillin/streptomycin. Subconfluent cells were detached from the flask by gentle scraping and 24-well plates seeded at 5×10^5 cells per well and allowed to adhere for 1 hr. Cells were then treated either test compound at a concentration of 10 μM (in 0.025% DMSO) or vehicle alone, and incubated for 1 hr. LPS 50 ng/ml (LPS—Sigma-Aldrich) was then added. After incubation for 16 hrs, culture media was collected and stored at −80° C. for ecosanoid measurements using enzyme immunometric assays (PGE2 and TXB2—Cayman Chemical).

The test system of data set [4] is MM200. The experiment in a line: MTT proliferation assay, melanoma MM200. The data set is classed as cell-based.
In data set [5] the test system is PC3. Description: MTT proliferation assay, prostate PC3. The data set is classed as cell-based. Conditions: Homo sapiens, PC-3. How it is done: (§3) An cultures were supplemented with 10% FCS (CSL, Australia), penicillin (100 U/ml), streptomycin ([…]), L-glutamine (2 mM) and sodium bicarbonate (1.2 g/L), and cultured at 37° C. in a humidified atmosphere of 5% CO2. All cell lines were purchased from ATCC (Maryland, USA) except where noted.
as §2

Data set [6] relates to HTB-138. Description: MTT proliferation assay, glioma HTB-138. In kind it is cell-based. How it is done:
as §3, §2

For data set [7], the system named is NCI-H460. Description: MTT proliferation assay, NSC lung NCI-H460. The data set is classed as cell-based. Conditions: Homo sapiens; NSC Lung NCI-H460, Table 2.2. The protocol:
as §3, §2

For data set [8], the system named is CCRF-CEM. Description: MTT proliferation assay, leukaemia (ALL) CCRF-CEM. In kind it is cell-based. Conditions: Homo sapiens, Table 2.2. How it is done: as §3, §2
The subject of data set [9] is HPAC. The experiment in a line: MTT proliferation assay, pancreatic HPAC. The data set is classed as cell-based. Conditions: Homo sapiens, Table 2.2.
Data set [10] has as its system MDA-MB-468. Description: MTT proliferation assay, breast MDA-MB-468. The data set is classed as cell-based. The conditions noted are these: Homo sapiens.
Data set [11] concerns HT-29. The experiment in a line: MTT proliferation assay, colorectal HT-29. The data set is classed as cell-based. Conditions: Homo sapiens; Colorectal HT-29, Table 2.2; read-out: IC50. How it is done: as §3, §2
Data set [12] in a line: Oral pharmacokinetics in female BALB/c mice. The data set is classed as in vivo, mouse. Conditions: female, BALB/c, mouse, serum, 50 mg/kg; oral; read-out: t1/2. The protocol: Compound No. 1 labelled above was prepared as homogenous suspensions in 1% CMC (m:v, water). The formulation was delivered orally by gavage to female BALB/c mice at a dosage of 50 mg/kg. Three animals were allocated to each timepoint (15 min, 30 min, 1 hr, 4 hr and 24 hr). At each respective timepoint, animals were euthanised by cervical dislocation and blood collected. The concentration of free compound was analysed by mass spectroscopy.

Data set [13] relates to NCI-H23. The experiment in a line: MTT proliferation assay, lung NCI-H23. Conditions: Homo sapiens; Lung NCI-H23, Table 2.1; read-out: cytoxicity (IC50). The data set is classed as cell-based. How it is done: as §3, §2
Data set [14] concerns RK (rabbit kidney) cells. The experiment in a line: Cytotoxicity (MTT proliferation assay) against rabbit kidney cells. The data set is classed as cell-based. The conditions noted are these: Oryctolagus cuniculus; rabbit kidney cells. How it is done: as §1, §2
Where [15] appears, read: Ovarian CP70, Table 2.2, read-out: IC50.
Where [16] appears, read: Melanoma MM200, Table 2.2, read-out: IC50.
[17] abbreviates: Prostate PC3, Table 2.2, read-out: IC50.
The mark [18] stands for this setting: Glioma HTB-138, Table 2.2, read-out: IC50.
[19] abbreviates: Breast MDA-MB-468, Table 2.2, read-out: IC50.

As for `N.N.[Cl][Pt][Cl]` [Cisplatin, reference compound], the IC50 (commonly the point on the concentration scale where inhibition reaches its midpoint) stood at 9 µM in [1] (non-transformed neonatal foreskin fibroblasts, read-out: IC50) and 9.9 µM in [1] (text says rabbit kidney cells, values are those of the NFF line of Table 1, read-out: degree of toxicity (IC50)).

With `Oc1ccc(C2COc3cc(O)ccc3C2(O)c2ccccc2)cc1` (stereo not shown) [Compound 14], the IC50 was 61.3 µM in [2] (setting [15]); 72.8 µM in [4] (setting [16]); 74 ± 4 µM in data set [5] (setting [17]); over 100 µM in [6] (setting [18]); over 100 µM in [7]; 90.2 µM in [8]. In addition, the IC50 in data set [9] and in data set [10] (setting [19]) was over 100 µM in each case. In data set [3], the “Percentage change in PGE2 synthesis compared with vehicle” value (“Percentage change in PGE2 synthesis” below) is −23.6%. For the same molecule, in data set [3], the “Percentage change in TXB2 synthesis compared with vehicle” value (from here on “Percentage change in TXB2 synthesis”) is given as −40.9%.

Consider `COc1ccc(C2(O)c3ccc(O)cc3OCC2c2ccc(O)cc2)cc1` (stereo not shown) [Compound 11], for which the IC50 is 52.7 ± 13 µM in data set [2] (setting [15]); 60.4 ± 9.2 µM in [4] (setting [16]); over 100 µM in data set [5] (setting [17]); 86.3 µM in data set [6] (setting [18]); over 100 µM in data set [7]; 95.4 µM in data set [8]. The molecule also gave an IC50 in data set [9] of over 100 µM. Moreover, in data set [3], the “Percentage change in PGE2 synthesis” value is −51.0%. In addition, in data set [3], the “Percentage change in TXB2 synthesis” value is −53.2%.

Take `COc1ccc(C2=C(c3ccc(O)cc3)COc3c2ccc(O)c3C)cc1` [Compound 32]: the IC50 worked out at 17.7 ± 5.9 µM in [2] (setting [15]); 12.6 ± 3.7 µM in data set [4] (setting [16]); 13 ± 0.6 µM in data set [5] (setting [17]); 29 ± 2 µM in data set [6] (setting [18]); 39.3 ± 7.7 µM in data set [7]; 15.4 µM in [8]. Also, the values for the IC50 in data set [11], in data set [9] and in data set [10] (setting [19]) were 24.8 ± 3.9 µM, 35.8 µM and 9.2 ± 5.1 µM, respectively. The “Percentage change in PGE2 synthesis” value in [3] is −71.1%. Moreover, the “Percentage change in TXB2 synthesis” value in [3] is −34.4%.

Turning to `COc1ccc(C2=C(c3ccc(OC)cc3)c3ccc(OC)cc3OC2)cc1` [Compound 28], the IC50 was 62 ± 44 µM in data set [2] (setting [15]); 64 ± 74 µM in data set [4] (setting [16]); 49 ± 16 µM in data set [5] (setting [17]); 62.4 µM in data set [6] (setting [18]); 41.6 µM in data set [7]; over 100 µM in data set [8]. In addition, the figures for the IC50 in [11], in data set [9] and in data set [10] (setting [19]) were 29.4 ± 4.4 µM, 50.7 ± 35 µM and 30.5 ± 4 µM, respectively. Also, in data set [3], the “Percentage change in PGE2 synthesis” value is on record as −85.1%. Also, the “Percentage change in TXB2 synthesis” value in data set [3] was −50.1%.

For `Cc1ccc(C2(O)c3ccc(O)cc3OCC2c2ccc(O)cc2)cc1` (stereo not shown) [Compound 10], the IC50 is 27.5 µM in [2] (setting [15]); 37.5 ± 0.4 µM in data set [5] (setting [17]); 60.2 µM in data set [6] (setting [18]); 39.7 µM in data set [7]; 40.7 µM in data set [8]; 50 µM in data set [9]. Further, in [3], the “Percentage change in PGE2 synthesis” value was −23.1%. Besides, the “Percentage change in TXB2 synthesis” value in data set [3] is given as −7.1%.

As to `COc1cccc(C2=C(c3ccc(O)cc3)COc3cc(O)ccc32)c1` [Compound 31], the IC50 in data set [2] (setting [15]) was 53.4 µM; in data set [4] (setting [16]) it was 27.2 ± 4.6 µM; in [5] (setting [17]), 47 ± 8.4 µM; in data set [6] (setting [18]), 94.6 µM; in data set [7] it was 76.3 µM; in data set [8], 51.5 ± 12 µM. Moreover, the IC50 in [11] was over 100 µM; in [9], 34.6 µM. The “Percentage change in PGE2 synthesis” value in data set [3] was −41.4%. Besides, in data set [3], the “Percentage change in TXB2 synthesis” value is recorded as −48.3%.

Regarding `COc1ccc(C2=C(c3ccc(O)cc3)COc3cc(O)ccc32)cc1` [Compound 27], the IC50 in [2] (setting [15]) is 22.4 ± 0.7 µM; in data set [4] (setting [16]), 14.6 µM; in data set [5] (setting [17]) it was 28 ± 7.3 µM; in [6] (setting [18]), 33.7 µM; in data set [7], 31.6 ± 4.9 µM; in data set [8], 16.6 µM. For the same molecule, the IC50 in data set [9] amounted to 27.6 ± 5.3 µM. In addition, the “Percentage change in PGE2 synthesis” value in [3] is given as −84.2%. Further, in data set [3], the “Percentage change in TXB2 synthesis” value was −86.1%.

For the molecule `Oc1ccc(C2=Cc3ccc(O)cc3OC2)cc1` [Phenoxodiol, reference compound], the IC50 in data set [2] (read-out: cytoxicity (IC50)) stood at 11.1 ± 23.6 µM; in data set [4] (read-out: cytoxicity (IC50)), 6.2 ± 4.5 µM; in data set [5] (Prostate PC3, Table 2.1, read-out: cytoxicity (IC50)), 9.1 ± 8 µM; in data set [6] (Glioma HTB-138, Table 2.1, read-out: cytoxicity (IC50)), 20.4 ± 17.5 µM; in [13], 8.3 ± 6.7 µM; in [10] (MDA-MB-468, read-out: cytoxicity (IC50)) it was 8.9 ± 4.8 µM. The IC50 in data set [14] is over 150 µM. In addition, in data set [12], the half-life was about 30 min.

As to `COc1cccc(C2(O)c3ccc(O)cc3OCC2c2ccc(O)cc2)c1` (stereo not shown) [Compound 15], the IC50 was 65 ± 1.9 µM in data set [2] (setting [15]); over 100 µM in data set [5] (setting [17]); over 100 µM in data set [6] (setting [18]); over 100 µM in data set [7]; 81.8 µM in data set [8]; over 100 µM in data set [9]. For the same molecule, the “Percentage change in PGE2 synthesis” value in data set [3] is on record as −38.3%. The “Percentage change in TXB2 synthesis” value in data set [3] is recorded as −58.4%.

As to `Oc1ccc(C2=C(c3ccccc3)c3ccc(O)cc3OC2)cc1` [Compound 30], the IC50 was found to be 18 µM in [2] (setting [15]); 33 ± 3 µM in [4] (setting [16]); 45 ± 4.9 µM in data set [5] (setting [17]); 45.7 µM in [6] (setting [18]); 43.5 ± 9.2 µM in data set [7]; 66.6 µM in data set [8]. Also, the IC50 was 41 ± 5.3 µM in data set [9] and over 100 µM in data set [10] (setting [19]). Also, the “Percentage change in PGE2 synthesis” value in data set [3] was −60.7%. Also, the “Percentage change in TXB2 synthesis” value in data set [3] is on record as −62.6%.

For the molecule `COc1ccc(C2COc3cc(OC)ccc3C2(O)c2ccc(OC)cc2)cc1` (stereo not shown) [Compound 12], the IC50 was over 100 µM in [2] (setting [15]); over 100 µM in data set [4] (setting [16]); 32.8 ± 4.7 µM in [5] (setting [17]); 47.7 µM in data set [6] (setting [18]); over 100 µM in data set [8]; 49.5 ± 32 µM in data set [11]. Moreover, the values for the IC50 in data set [9] and in data set [10] (setting [19]) were 86.3 ± 67 µM and 63.5 ± 4.6 µM, respectively. Besides, the “Percentage change in PGE2 synthesis” value in data set [3] is reported as −68.3%. Besides, the “Percentage change in TXB2 synthesis” value in [3] is recorded as −34.0%.
